In PubChem BioAssay AID248 (DTP/NCI, 2004):
Values joined by “and” are separate entries in the source; they are usually repeats but may differ in a detail not shown here. Identical values can stand only once. Toxic doses and inconclusive results are not listed. Rule as the data show it: active = T/C of 150% or more; inactive = T/C below 125%.

Test system: L1210 leukemia ip in BDF1 mice, survival T/C
Experiment: NCI In Vivo Anticancer Drug Screen. Data for tumor model L1210 Leukemia (intraperitoneal) in B6D2F1 (BDF1) mice
Settings: endpoint: mean survival time, higher = longer survival
In short: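 Transplantable tumor model; survival measured in treated vs vehicle control mice. Value = treated/control.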

[1] = dose: 100.0 mg/kg/injection, schedule: Q01DX009 (ip), vehicle: Klucel (hydroxypropylcellulose) (HPC)
[2] = dose: 100.0 mg/kg/injection, schedule: Q04DX003 (ip), vehicle: Klucel (hydroxypropylcellulose) (HPC)
[3] = dose: 200.0 mg/kg/injection, schedule: Q01DX009 (ip), vehicle: Klucel (hydroxypropylcellulose) (HPC)
[4] = dose: 200.0 mg/kg/injection, schedule: Q04DX003 (ip), vehicle: Klucel (hydroxypropylcellulose) (HPC)
[5] = dose: 100.0 mg/kg/injection, schedule: Q04DX003 (ip), vehicle: saline with Tween-80
[6] = dose: 200.0 mg/kg/injection, schedule: Q04DX003 (ip), vehicle: saline with Tween-80
[7] = dose: 400.0 mg/kg/injection, schedule: Q04DX003 (ip), vehicle: saline with Tween-80
[8] = dose: 400.0 mg/kg/injection, schedule: Q04DX003 (ip), vehicle: Klucel (hydroxypropylcellulose) (HPC)
[9] = dose: 100.0 mg/kg/injection, schedule: Q01DX001 (ip), vehicle: Klucel (hydroxypropylcellulose) (HPC)
[10] = dose: 200.0 mg/kg/injection, schedule: Q01DX001 (ip), vehicle: Klucel (hydroxypropylcellulose) (HPC)
[11] = dose: 400.0 mg/kg/injection, schedule: Q01DX001 (ip), vehicle: Klucel (hydroxypropylcellulose) (HPC)
[12] = dose: 75.0 mg/kg/injection, schedule: Q01DX001 (ip), vehicle: other
[13] = dose: 150.0 mg/kg/injection, schedule: Q01DX001 (ip), vehicle: other
[14] = dose: 100.0 mg/kg/injection, schedule: Q01DX001 (ip), vehicle: saline
[15] = dose: 200.0 mg/kg/injection, schedule: Q01DX001 (ip), vehicle: saline
[16] = dose: 400.0 mg/kg/injection, schedule: Q01DX009 (ip), vehicle: Klucel (hydroxypropylcellulose) (HPC)
[17] = dose: 100.0 mg/kg/injection, schedule: Q01DX009 (ip), vehicle: saline
[18] = dose: 200.0 mg/kg/injection, schedule: Q01DX009 (ip), vehicle: saline

Measured: T/C

CCCCCCCCCCCC(=O)Nc1ccc(C(C)C)cc1
inactive: dose: 100.0 mg/kg/injection, schedule: Q01DX001 (ip), vehicle: saline with Tween-80 102 % of control | dose: 200.0 mg/kg/injection, schedule: Q01DX001 (ip), vehicle: saline with Tween-80 87 % of control | dose: 400.0 mg/kg/injection, schedule: Q01DX001 (ip), vehicle: saline with Tween-80 92 % of control

NC(N)=N/N=C/C(=N\N=C(N)N)C(F)(F)F
inactive: dose: 15.0 mg/kg/injection, schedule: Q01DX Z (ip), vehicle: saline 102 % of control | dose: 30.0 mg/kg/injection, schedule: Q01DX Z (ip), vehicle: saline 98 % of control | dose: 60.0 mg/kg/injection, schedule: Q01DX Z (ip), vehicle: saline 101 % of control and 108 % of control | dose: 120.0 mg/kg/injection, schedule: Q01DX Z (ip), vehicle: saline 93 % of control and 106 % of control | dose: 120.0 mg/kg/injection, schedule: Q01DX Z (oral), vehicle: saline 96 % of control | dose: 240.0 mg/kg/injection, schedule: Q01DX Z (ip), vehicle: saline 98 % of control | dose: 240.0 mg/kg/injection, schedule: Q01DX Z (oral), vehicle: saline 104 % of control | dose: 480.0 mg/kg/injection, schedule: Q01DX Z (oral), vehicle: saline 98 % of control | dose: 960.0 mg/kg/injection, schedule: Q01DX Z (oral), vehicle: saline 98 % of control

CC(=O)Oc1ccc(C)cc1
inactive: dose: 50.0 mg/kg/injection, schedule: Q01DX009 (ip), vehicle: Klucel (hydroxypropylcellulose) (HPC) 94 % of control | [1] 110 % of control | [2] 100 % of control | [3] 107 % of control | [4] 104 % of control

CC(=O)c1ccc(S(=O)(=O)c2ccccc2)cc1
inactive: dose: 50.0 mg/kg/injection, schedule: Q01DX001 (ip), vehicle: carboxymethylcellulose (CMC) 93 % of control | dose: 100.0 mg/kg/injection, schedule: Q01DX001 (ip), vehicle: carboxymethylcellulose (CMC) 93 % of control | [5] 96 % of control | dose: 200.0 mg/kg/injection, schedule: Q01DX001 (ip), vehicle: carboxymethylcellulose (CMC) 101 % of control | [6] 91 % of control | dose: 400.0 mg/kg/injection, schedule: Q01DX001 (ip), vehicle: carboxymethylcellulose (CMC) 95 % of control | [7] 107 % of control

CSc1ccc(C2CCCCC2OS(C)(=O)=O)cc1 (centres undefined)
inactive: [2] 95 % of control | [4] 92 % of control | [8] 95 % of control

CC(C(=O)O)N1C(=O)C2C3C=CC(C3)C2C1=O (centres undefined)
inactive: [5] 94 % of control | [6] 102 % of control | [7] 97 % of control

Nc1ccc2cc3ccccc3cc2c1
inactive: dose: 12.5 mg/kg/injection, schedule: Q01DX015 (ip), vehicle: saline 104 % of control | dose: 25.0 mg/kg/injection, schedule: Q01DX015 (ip), vehicle: saline 95 % of control | dose: 50.0 mg/kg/injection, schedule: Q01DX015 (ip), vehicle: saline 95 % of control | dose: 100.0 mg/kg/injection, schedule: Q01DX015 (ip), vehicle: saline 97 % of control

O=C(COc1ccc(Cl)cc1C(=O)O)NCc1cccc(NC(=O)Nc2ccc(S(=O)(=O)F)cc2)c1
inactive: [9] 96 % of control | [10] 104 % of control | [11] 105 % of control

CC(C)CC(CC(C)C)NCCOC(=O)c1ccc(N)cc1
inactive: [12] 106 % of control | [13] 103 % of control

Cc1ccc(-c2nc(C#N)c(C#N)nc2-c2ccc(C)cc2)cc1
inactive: [14] 98 % of control | [15] 101 % of control | dose: 400.0 mg/kg/injection, schedule: Q01DX001 (ip), vehicle: saline 101 % of control

C/C(=N\NC(=S)Nc1cc(Cl)ccc1Cl)c1cc([N+](=O)[O-])c(O)cc1O
inactive: [9] 104 % of control | [10] 101 % of control | [11] 93 % of control

CCOC(=O)c1cnn2c(=O)[nH]cnc12
inactive: [5] 98 % of control | [6] 109 % of control

CCCCCCCCCCCC(=O)Nc1cc(Cl)c(OC)cc1OC
inactive: [1] 95 % of control | [3] 92 % of control | [16] 93 % of control

CCOCCN=Cc1ccccc1O.CCOCCN=Cc1ccccc1O.[Co]
inactive: dose: 50.0 mg/kg/injection, schedule: Q01DX001 (ip), vehicle: saline 100 % of control | [14] 98 % of control | [15] 96 % of control

Cc1ccccc1SSc1ccccc1C
inactive: [2] 94 % of control | [4] 97 % of control | [8] 91 % of control

COc1ccc2c3c(ccc2c1)NC(C(=O)O)CC3 (centres undefined)
inactive: [1] 97 % of control | [3] 96 % of control | [16] 96 % of control

COc1cc2ccc3c4cc5c(cc4cnc3c2cc1OC)OCO5
inactive: dose: 100.0 mg/kg/injection, schedule: Q01DX009 (ip), vehicle: saline with Tween-80 102 % of control | [5] 89 % of control | dose: 200.0 mg/kg/injection, schedule: Q01DX009 (ip), vehicle: saline with Tween-80 98 % of control | [6] 87 % of control | dose: 400.0 mg/kg/injection, schedule: Q01DX009 (ip), vehicle: saline with Tween-80 106 % of control | [7] 89 % of control

CC1(C)C=C(C(Br)c2cccc(Cl)c2)C(=O)c2ccccc21 (centres undefined)
inactive: [1] 101 % of control | [2] 109 % of control | [3] 104 % of control | [4] 106 % of control | [16] 106 % of control | [8] 104 % of control

CC(NS(=O)(=O)Cc1ccccc1)C(=O)O (centres undefined)
inactive: dose: 100.0 mg/kg/injection, schedule: Q01DX001 (ip), vehicle: other 96 % of control | dose: 100.0 mg/kg/injection, schedule: Q04DX003 (ip), vehicle: other 107 % of control | dose: 200.0 mg/kg/injection, schedule: Q01DX001 (ip), vehicle: other 95 % of control | dose: 200.0 mg/kg/injection, schedule: Q04DX003 (ip), vehicle: other 96 % of control | dose: 400.0 mg/kg/injection, schedule: Q01DX001 (ip), vehicle: other 104 % of control | dose: 400.0 mg/kg/injection, schedule: Q04DX003 (ip), vehicle: other 106 % of control

O=C(O)C1C2C=CC(C3C=CC32)C1C(=O)O (centres undefined)
inactive: dose: 6.25 mg/kg/injection, schedule: Q01DX009 (ip), vehicle: saline 98 % of control | dose: 12.5 mg/kg/injection, schedule: Q01DX009 (ip), vehicle: saline 110 % of control | dose: 25.0 mg/kg/injection, schedule: Q01DX009 (ip), vehicle: saline 102 % of control and 115 % of control | dose: 50.0 mg/kg/injection, schedule: Q01DX009 (ip), vehicle: saline 96 % of control and 105 % of control | [17] 100 % of control | [18] 100 % of control | dose: 400.0 mg/kg/injection, schedule: Q01DX009 (ip), vehicle: saline 94 % of control

COc1ccc(C(=O)NC(=O)Nc2ccccc2)cc1
inactive: dose: 15.0 mg/kg/injection, schedule: Q01DX001 (ip), vehicle: saline 97 % of control | dose: 30.0 mg/kg/injection, schedule: Q01DX001 (ip), vehicle: saline 91 % of control | dose: 60.0 mg/kg/injection, schedule: Q01DX001 (ip), vehicle: saline 92 % of control

CCN(CC)CCN1CC(=O)Nc2cc(Cl)ccc21
inactive: dose: 25.0 mg/kg/injection, schedule: Q04DX003 (ip), vehicle: saline 94 % of control | dose: 50.0 mg/kg/injection, schedule: Q04DX003 (ip), vehicle: saline 99 % of control | dose: 100.0 mg/kg/injection, schedule: Q04DX003 (ip), vehicle: saline 98 % of control and 87 % of control

CC1CC(CC(=O)O)(C(=O)O)CC(C)O1 (centres undefined)
inactive: [9] 105 % of control | [5] 90 % of control | [10] 97 % of control | [6] 101 % of control | [11] 92 % of control | [7] 95 % of control

Fc1cc(F)c(F)c(Oc2c(F)c(F)c(F)c(F)c2F)c1F
inactive: [2] 100 % of control | [4] 95 % of control | [8] 93 % of control

CCN(CC)CCC(=O)c1cccs1
inactive: [17] 87 % of control | [18] 89 % of control

Clc1ccc2nc3nc(-c4ccccc4)c(-c4ccccc4)nc3nc2c1
inactive: [12] 98 % of control | [13] 98 % of control | dose: 300.0 mg/kg/injection, schedule: Q01DX001 (ip), vehicle: other 96 % of control
